Results from US12649727B2, “EFGR inhibitor, preparation method therefor and application thereof” (Abbisko Therapeutics Co., Ltd, priority 2020, dated 2026).

What was measured:
Assay type in all cases: cell-based
[1] = biological target: Ba/F3 EGFR-V769_D770insASV (Homo sapiens, UniProt P00533, DUP767-769, cells depend on it); assay: Proliferation experiment of Ba/F3 cell line, EGFR-V769_D770insASV (CellTiter-Glo); conditions: cultured for 72 hrs with compound, CTG analysis, read-out: Ba/F3 EGFR-V769_D770insASV IC50
Chain of Ba/F3 EGFR-V769_D770insASV (P00533 with tags, fused parts or gaps DUP767-769): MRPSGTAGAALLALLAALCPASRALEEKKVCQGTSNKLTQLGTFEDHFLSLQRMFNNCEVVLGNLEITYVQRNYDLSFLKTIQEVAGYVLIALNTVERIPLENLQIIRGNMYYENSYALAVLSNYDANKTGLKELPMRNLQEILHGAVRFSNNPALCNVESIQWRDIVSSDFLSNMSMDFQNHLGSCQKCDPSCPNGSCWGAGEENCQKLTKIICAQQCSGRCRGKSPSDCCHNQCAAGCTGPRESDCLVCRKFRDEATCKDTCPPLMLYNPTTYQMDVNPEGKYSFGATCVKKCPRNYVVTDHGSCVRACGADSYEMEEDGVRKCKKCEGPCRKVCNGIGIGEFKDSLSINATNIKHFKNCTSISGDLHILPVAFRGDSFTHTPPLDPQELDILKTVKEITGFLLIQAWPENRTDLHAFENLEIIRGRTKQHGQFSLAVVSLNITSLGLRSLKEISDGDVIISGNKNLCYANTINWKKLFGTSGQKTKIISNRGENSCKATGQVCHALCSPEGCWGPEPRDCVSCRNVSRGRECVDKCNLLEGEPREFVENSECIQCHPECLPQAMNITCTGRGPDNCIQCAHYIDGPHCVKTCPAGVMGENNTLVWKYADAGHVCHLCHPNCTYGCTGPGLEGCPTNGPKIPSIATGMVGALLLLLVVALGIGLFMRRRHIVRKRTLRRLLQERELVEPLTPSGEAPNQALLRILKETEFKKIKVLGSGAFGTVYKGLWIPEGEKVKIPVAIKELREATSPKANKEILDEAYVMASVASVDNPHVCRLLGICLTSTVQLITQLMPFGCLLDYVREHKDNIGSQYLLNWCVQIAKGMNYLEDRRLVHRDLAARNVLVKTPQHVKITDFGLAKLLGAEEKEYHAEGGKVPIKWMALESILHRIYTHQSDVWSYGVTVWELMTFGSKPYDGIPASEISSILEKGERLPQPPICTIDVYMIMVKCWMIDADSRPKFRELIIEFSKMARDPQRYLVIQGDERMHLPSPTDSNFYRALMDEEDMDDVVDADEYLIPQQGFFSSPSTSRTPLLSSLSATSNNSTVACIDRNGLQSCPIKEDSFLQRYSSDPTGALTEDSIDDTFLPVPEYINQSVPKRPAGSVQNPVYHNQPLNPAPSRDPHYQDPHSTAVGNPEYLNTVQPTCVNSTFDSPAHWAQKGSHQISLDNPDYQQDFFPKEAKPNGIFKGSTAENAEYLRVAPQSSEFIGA
Method in brief: (§1)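 […] Ba/F3 cells expressing EGFR insertion mutants treated 72 h at 37 °C with 9 concentrations, 3.16-fold dilutions, top 10 μM, 0.1% DMSO, in triplicate. Viability by CellTiter-Glo luminescence with T0 reference plate; IC50 (nM) from non-linear dose-response fit.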

[2] = biological target: Ba/F3 EGFR-D770-N771ins_SVD (Homo sapiens, UniProt P00533, DUP768-770, cells depend on it); assay: Proliferation experiment of Ba/F3 cell line, EGFR-D770-N771ins_SVD (CellTiter-Glo); conditions: cultured for 72 hrs with compound, CTG analysis, read-out: Ba/F3 EGFR-D770-N771ins_SVD IC50
Chain of Ba/F3 EGFR-D770-N771ins_SVD (P00533 with tags, fused parts or gaps DUP768-770): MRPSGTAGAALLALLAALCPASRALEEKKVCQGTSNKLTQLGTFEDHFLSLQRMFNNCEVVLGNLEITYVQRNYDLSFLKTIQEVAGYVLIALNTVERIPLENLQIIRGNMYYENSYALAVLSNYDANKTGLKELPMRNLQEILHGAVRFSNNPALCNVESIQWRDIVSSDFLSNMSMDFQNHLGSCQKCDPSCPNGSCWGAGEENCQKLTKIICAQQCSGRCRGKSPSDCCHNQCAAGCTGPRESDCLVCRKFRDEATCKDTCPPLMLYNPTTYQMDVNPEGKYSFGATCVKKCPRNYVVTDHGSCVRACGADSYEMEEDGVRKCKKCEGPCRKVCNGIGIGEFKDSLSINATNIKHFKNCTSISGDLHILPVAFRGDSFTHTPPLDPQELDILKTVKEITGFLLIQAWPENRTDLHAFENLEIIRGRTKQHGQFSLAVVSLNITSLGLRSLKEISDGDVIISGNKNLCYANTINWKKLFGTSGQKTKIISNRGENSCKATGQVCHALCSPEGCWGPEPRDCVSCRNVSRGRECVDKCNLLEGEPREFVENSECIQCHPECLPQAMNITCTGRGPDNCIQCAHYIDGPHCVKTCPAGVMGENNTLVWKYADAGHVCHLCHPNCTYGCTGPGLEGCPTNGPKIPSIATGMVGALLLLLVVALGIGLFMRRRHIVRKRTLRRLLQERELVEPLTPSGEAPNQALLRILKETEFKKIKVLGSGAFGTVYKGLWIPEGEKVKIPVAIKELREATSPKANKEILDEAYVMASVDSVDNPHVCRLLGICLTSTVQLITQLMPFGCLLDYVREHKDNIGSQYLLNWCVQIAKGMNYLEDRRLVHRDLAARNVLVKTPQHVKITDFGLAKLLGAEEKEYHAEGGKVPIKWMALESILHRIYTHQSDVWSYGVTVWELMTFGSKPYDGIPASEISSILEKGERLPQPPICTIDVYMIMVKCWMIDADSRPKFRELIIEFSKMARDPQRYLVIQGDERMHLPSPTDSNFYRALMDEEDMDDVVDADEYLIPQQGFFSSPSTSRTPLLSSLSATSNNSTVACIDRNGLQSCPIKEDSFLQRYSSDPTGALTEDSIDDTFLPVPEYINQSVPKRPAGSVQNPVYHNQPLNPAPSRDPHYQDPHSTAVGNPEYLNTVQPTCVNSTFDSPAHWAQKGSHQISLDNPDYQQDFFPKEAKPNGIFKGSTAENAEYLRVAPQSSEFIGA
Method in brief: as §1

A431 (EGFR-WT) = assay: Proliferation experiment, A431 cell line (CellTiter-Glo); conditions: Homo sapiens, A-431; A431 cells, cultured for 72 hrs with compound, CTG analysis

Row | Structure (SMILES) | GI50 [1] | GI50 [2] | IC50 (A431 (EGFR-WT))
1 | C=C(F)C(=O)Nc1cc2c(Nc3ccnc(-c4ccccc4F)c3)ncnc2cc1OCC(F)(F)F [Example 88, 2-fluoro-N-(4-((2-(2-fluorophenyl)pyridin-4-yl)amino)-7-(2,2,2-trifluoroethoxy)quinazolin-6-yl)acrylamide] | 25.5 nM | 10.1 nM | 687 nM
2 | C=C(F)C(=O)Nc1cc2c(Nc3ccnc(-c4ccccc4F)c3)ncnc2cc1OC1CC1 [Example 90, N-(7-cyclopropoxy-4-((2-(2-fluorophenyl)pyridin-4-yl)amino)quinazolin-6-yl)-2-fluoroacrylamide] | 35.8 nM | 11.9 nM | 461 nM
3 | C=C(F)C(=O)Nc1cc2c(Nc3ccnc(-c4ccccc4F)c3)ncnc2cc1OCC1CC1 [Example 91, N-(7-(cyclopropylmethoxy)-4-((2-(2-fluorophenyl)pyridin-4-yl)amino)quinazolin-6-yl)-2-fluoroacrylamide] | 32.7 nM | 12.7 nM | 655 nM
4 | C=CC(=O)Nc1cc2c(Nc3ccnc(-c4ccccc4F)c3)ncnc2cc1F [Example 92, N-(7-fluoro-4-((2-(2-fluorophenyl)pyridin-4-yl)amino)quinazolin-6-yl)acrylamide] | 16.7 nM | 30.5 nM | 355 nM
5 | C=C(F)C(=O)Nc1cc2c(Nc3ccnc(-c4ccccc4F)c3)ncnc2cc1F [Example 93, 2-fluoro-N-(7-fluoro-4-((2-(2-fluorophenyl)pyridin-4-yl)amino)quinazolin-6-yl)acrylamide] | 51.1 nM | 14.5 nM | 877 nM
6 | C=CC(=O)Nc1cc2c(Nc3ccnc(-c4ccccc4F)c3)ncnc2cc1N1CCOCC1 [Example 94, N-(4-((2-(2-fluorophenyl)pyridin-4-yl)amino)-7-morpholinoquinazolin-6-yl)acrylamide] | 1.9 nM | 1.4 nM | 2330 nM
7 | C=C(F)C(=O)Nc1cc2c(Nc3ccnc(-c4ccccc4F)c3)ncnc2cc1N1CCOCC1 [Example 95, 2-fluoro-N-(4-((2-(2-fluorophenyl)pyridin-4-yl)amino)-7-morpholinoquinazolin-6-yl)acrylamide] | 8.3 nM | 3.3 nM | 1820 nM
8 | C=CC(=O)Nc1cc2c(Nc3ccnc(-c4ccccc4F)c3)ncnc2cc1N1CCC(N2CCOCC2)CC1 [Example 98, N-(4-((2-(2-fluorophenyl)pyridin-4-yl)amino)-7-(4-morpholinopiperidin-1-yl)quinazolin-6-yl)acrylamide] | 6.3 nM | 2 nM | 1530 nM
9 | C=CC(=O)Nc1cc2c(Nc3ccnc(-c4ccccc4F)c3)ncnc2cc1N1CCC(N2CCN(C)CC2)CC1 [Example 99, N-(4-((2-(2-fluorophenyl)pyridin-4-yl)amino)-7-(4-(4-methylpiperazin-1-yl)piperidin-1-yl)quinazolin-6-yl)acrylamide] | 6.1 nM | 2.8 nM | 315 nM
10 | C=C(F)C(=O)Nc1cc2c(Nc3ccnc(-c4ccccc4F)c3)ncnc2cc1N1CCC(O)CC1 [Example 100, 2-fluoro-N-(4-((2-(2-fluorophenyl)pyridin-4-yl)amino)-7-(4-hydroxypiperidin-1-yl)quinazolin-6-yl)acrylamide] | 14.8 nM | 4.4 nM | 225 nM
11 | C=C(F)C(=O)Nc1cc2c(Nc3ccnc(-c4ccccc4F)c3)ncnc2cc1N1CCC(N2CCOCC2)CC1 [Example 102, 2-fluoro-N-(4-((2-(2-fluorophenyl)pyridin-4-yl)amino)-7-(4-morpholinopiperidin-1-yl)quinazolin-6-yl)acrylamide] | 17 nM | 6.1 nM | 733 nM
12 | C=C(F)C(=O)Nc1cc2c(Nc3ccnc(-c4ccccc4F)c3)ncnc2cc1N1CCC(N2CCN(C)CC2)CC1 [Example 103, 2-fluoro-N-(4-((2-(2-fluorophenyl)pyridin-4-yl)amino)-7-(4-(4-methylpiperazin-1-yl)piperidin-1-yl)quinazolin-6-yl)acrylamide] | 6.1 nM | 30 nM | 15 nM
13 | C=C(F)C(=O)Nc1cc2c(Nc3ccnc(-c4ccccc4F)c3)ncnc2cc1N1CCC1 [Example 105, N-(7-(azetidin-1-yl)-4-((2-(2-fluorophenyl)pyridin-4-yl)amino)quinazolin-6-yl)-2-fluoroacrylamide] | 35 nM | 12.7 nM | 2500 nM
14 | C=CC(=O)Nc1cc2c(Nc3ccnc(-c4ccccc4F)c3)ncnc2cc1O[C@@H]1CCN(CCOC)C1 [Example 111, (R)—N-(4-((2-(2-fluorophenyl)pyridin-4-yl)amino)-7-((1-(2-methoxyethyl)pyrrolidin-3-yl)oxy)quinazolin-6-yl)acrylamide] | 3.4 nM | 1.8 nM | 84.6 nM
15 | C=CC(=O)Nc1cc2c(Nc3ccnc(-c4ccccc4F)c3)ncnc2cc1O[C@@H]1CCN(CCO)C1 [Example 112, (R)—N-(4-((2-(2-fluorophenyl)pyridin-4-yl)amino)-7-((1-(2-hydroxyethyl)pyrrolidin-3-yl)oxy)quinazolin-6-yl)acrylamide] | 3.6 nM | 1.4 nM | 89.3 nM
16 | C=CC(=O)Nc1cc2c(Nc3ccnc(-c4ccccc4F)c3)ncnc2cc1O[C@@H]1CCN(C2CC2)C1 [Example 113, (R)—N-(7-((1-cyclopropylpyrrolidin-3-yl)oxy)-4-((2-(2-fluorophenyl)pyridin-4-yl)amino)quinazolin-6-yl)acrylamide] | 11.6 nM | 3.9 nM | 173 nM
17 | C=CC(=O)Nc1cc2c(Nc3ccnc(-c4ccccc4F)c3)ncnc2cc1O[C@@H]1CCN(C2COC2)C1 [Example 114, (R)—N-(4-((2-(2-fluorophenyl)pyridin-4-yl)amino)-7-((1-(oxetan-3-yl)pyrrolidin-3-yl)oxy)quinazolin-6-yl)acrylamide] | 3.3 nM | 1.1 nM | 26.3 nM
18 | C=CC(=O)Nc1cc2c(Nc3ccnc(-c4ccccc4F)c3)ncnc2cc1O[C@@H]1CCN(C2CCN(C)CC2)C1 [Example 116, (R)-N-(4-((2-(2-fluorophenyl)pyridin-4-yl)amino)-7-((1-(1-methylpiperidin-4-yl)pyrrolidin-3-yl)oxy)quinazolin-6-yl)acrylamide] | 3.4 nM | 3 nM | 142 nM
19 | C=C(F)C(=O)Nc1cc2c(Nc3ccnc(-c4ccccc4F)c3)ncnc2cc1O[C@@H]1CCN(C2COC2)C1 [Example 118, (R)-2-fluoro-N-(4-((2-(2-fluorophenyl)pyridin-4-yl)amino)-7-((1-(oxetan-3-yl)pyrrolidin-3-yl)oxy)quinazolin-6-yl)acrylamide] | 9.8 nM | 2.6 nM | 19.1 nM
20 | C=C(F)C(=O)Nc1cc2c(Nc3ccnc(-c4ccccc4F)c3)ncnc2cc1O[C@@H]1CCN(C2CCOCC2)C1 [Example 121, (R)-2-fluoro-N-(4-((2-(2-fluorophenyl)pyridin-4-yl)amino)-7-((1-(tetrahydro-2H-pyran-4-yl)pyrrolidin-3-yl)oxy)quinazolin-6-yl)acrylamide] | 16.5 nM | 6.5 nM | 44.1 nM
21 | C=CC(=O)Nc1cc2c(Nc3ccnc(-c4ccccc4F)c3)ncnc2cc1OCCCN1CCN(CCO)CC1 [Example 122, N-(4-((2-(2-fluorophenyl)pyridin-4-yl)amino)-7-(3-(4-(2-hydroxyethyl)piperazin-1-yl)propoxy)quinazolin-6-yl)acrylamide] | 6.8 nM | 3.8 nM | 63.9 nM
22 | C=CC(=O)Nc1cc2c(Nc3ccnc(-c4ccccc4F)c3)ncnc2cc1OCCCN1CCN(CCOC)CC1 [Example 123, N-(4-((2-(2-fluorophenyl)pyridin-4-yl)amino)-7-(3-(4-(2-methoxyethyl)piperazin-1-yl)propoxy)quinazolin-6-yl)acrylamide] | 2.4 nM | 1.6 nM | 20.5 nM
23 | C=CC(=O)Nc1cc2c(Nc3ccnc(-c4ccccc4F)c3)ncnc2cc1O[C@@H]1CCN(CC)C1 [Example 124, (R)-N-(7-((1-ethylpyrrolidin-3-yl)oxy)-4-((2-(2-fluorophenyl)pyridin-4-yl)amino)quinazolin-6-yl)acrylamide] | 9.1 nM | 2.9 nM | 104 nM
24 | C=CC(=O)Nc1cc2c(Nc3ccnc(-c4ccccc4F)c3)ncnc2cc1O[C@@H]1CCN(C(C)C)C1 [Example 125, (R)-N-(4-((2-(2-fluorophenyl)pyridin-4-yl)amino)-7-((1-isopropylpyrrolidin-3-yl)oxy)quinazolin-6-yl)acrylamide] | 7.8 nM | 2.4 nM | 86.5 nM
